Measured values published in patent publication US5095011A, “Lyophilized cefepime dihydrochloride for parenteral use” (priority 1990, dated 1992).
Structures can show the parent of a compound that is named as a salt. Blank lines part the entries; values can stand above or below the compound they belong to.

Tests used:
[1] = test system: various organisms; settings: U.S. Pat. No. 4,406,899; amorphous zwitterionic form; cited from earlier work
[2] = assay type: physicochemical; settings: water for injection
Description: 375 mg L(+)-Arginine for injection is reconstituted with 4.45 ml of sterile water for injection. The solution is taken up in a syringe and is added to a vial containing lyophilized BMY-28142-2HCl having an activity of 500 mg activity per vial. This solution produces a reconstituted solution suitable for injection which has an activity of about 100 mg BMY-28142 per milliliter.
Control of the amount of water used for dilution permitted the attainment of high concentrations up to 400 mg BMY-28142 per ml.

[3] = Stability of lyophilized amorphous BMY-28142 salts (dry, sealed vials); assay type: physicochemical; settings: for expected shelf life: extrapolated from stability tests; for remaining at 168 h: 1 week; for remaining at 336 h: 2 weeks; for remaining at 672 h: 4 weeks; for remaining at 1008 h: 6 weeks; for remaining at 2184 h: 13 weeks; for remaining at 6888 h: 41 weeks
Description: […] of BMY-28142 Zi was dissolved qs to 33 ml with 1.9 ml of 1N-HCl and water for injection (pH=2.0).
One ml portion (approximately 65 mg/ml) of the solution were placed into 10cc flint vials which were loosely stoppered with split lyphlization stoppers, frozen to -40° C. and lyphilized at a shelf temperature of 0° C. for 24 hours, then at 24° C. for 24 hours and at 32.2° C. for four hours. The vials were then sealed with aluminum closures and tested for stability at 56°, 45° and 37° C.

[4] = dry lyophilized solid, 45° C., second lot, separately prepared

Compound: CO/N=C(\C(=O)N[C@@H]1C(=O)N2C(C(=O)[O-])=C(C[N+]3(C)CCCC3)CS[C@H]12)c1csc(N)n1 [BMY-28142, 7-[α-(2-aminothiazol-4-yl)-α-(Z)-methoxyiminocetamido]-3-[(1-methyl-1-pyrrolidinium)methyl]-3-cephem-4-carboxylate]
antibacterial spectrum of activity [1]: broader spectrum activity than ceftazidime and cefotaxime
concentration attained on reconstitution [2]: up to 400 mg per ml

expected shelf life ([3]; 4° C.): at least 24 months
remaining at 168 h ([3]; dry lyophilized solid, 45° C.): 99.8%
remaining at 168 h [3, 4]: 100%
remaining at 336 h ([3]; dry lyophilized solid, 45° C.): 97.2%
remaining at 336 h ([3]; dry lyophilized solid, 56° C., second lot, separately prepared): 91.8%
remaining at 672 h ([3]; dry lyophilized solid, 37° C.): 98.6%
remaining at 672 h [3, 4]: 92.5%
remaining at 4320 h ([3]; dry lyophilized solid, 6 months, 25° C., second lot, separately prepared): 100%
remaining at 1008 h ([3]; dry lyophilized solid, 37° C., second lot, separately prepared): 97.2%
remaining at 1344 h ([3]; dry lyophilized solid, 8 weeks, 56° C.): 87%
remaining at 2184 h ([3]; dry lyophilized solid, 37° C.): 95.5%
remaining at 2184 h ([3]; dry lyophilized solid, 45° C.): 91.6%
remaining at 4368 h ([3]; dry lyophilized solid, 26 weeks, 45° C.): 87.7%
remaining at 6888 h ([3]; dry lyophilized solid, 25° C.): 98.1%
remaining at 6888 h ([3]; dry lyophilized solid, 37° C.): 91.7%
remaining at 8736 h ([3]; dry lyophilized solid, 52 weeks, 25° C., second lot, separately prepared): 100%
expected shelf life ([3]; room temperature): at least 12 months
Compound: CO/N=C(\C(=O)NC1C(=O)N2C(C(=O)[O-])=C(C[N+]3(C)CCCC3)CSC12)c1csc(N)n1 (stereo not drawn) [Di-HCl, 7-[α-(2-aminothiazol-4-yl)-α-(Z)-methoxyiminoacetamido]-3-[(1-methyl-1-pyrrolidinium)methyl]-3-cephem-4-carboxylate]
stability of lyophile compared with other lyophilized amorphous salts [3]: unexpectedly more stable than the lyophilized, amorphous sesqui-H3 PO4, mono-H2 SO4 and mono-HCl salts

remaining at 168 h ([3]; dry lyophilized solid, 56° C.): 75%
remaining at 1008 h ([3]; dry lyophilized solid, 37° C.): 79%
Compound: CO/N=C(\C(=O)NC1C(=O)N2C(C(=O)[O-])=C(C[N+]3(C)CCCC3)CSC12)c1csc(N)n1 (stereo not shown) [Sesqui-PO4]
